Experiments:
Type in all cases: biochemical
Conditions in all cases: 1 μM inhibitor concentration
HER4 = HER4 (Homo sapiens (Human), UniProt Q15303); assay: HER4 kinase selectivity assay
Protocol: HER4 (5-20 mU diluted in 50 mM Tris pH 7.5, 0.1 mM EGTA, 0.1% β-mercaptoethanol, 1 mg/ml BSA) is assayed against Poly Glut Tyr in a final volume of […] containing 50 mM Tris pH 7.5, 0.1 mM EGTA, 1 mg/ml Poly Glut Tyr, 10 mM magnesium acetate and 0.005 mM [33P-γ-ATP] (50-1000 cpm/pmole) and incubated for 30 min at room temperature. Assays are stopped by addition of 5 μl of 0.5 M (3%) orthophosphoric acid and then harvested onto P81 Unifilter plates with a wash buffer of 50 mM orthophosphoric acid.

VEG-FR = VEG-FR kinase selectivity assay
Protocol: VEG-FR (5-20 mU diluted in 50 mM Tris pH 7.5, 0.1 mM EGTA, 1 mg/ml BSA) is assayed against a substrate peptide ([…]) in a final volume of 25.5 μl containing 50 mM Tris pH 7.5, 300 µM substrate peptide, 10 mM magnesium acetate and 0.02 mM [33P-g-ATP] (50-1000 cpm/pmole) and incubated for 30 min at room temperature. Assays are stopped by addition of 5 μl of 0.5 M (3%) orthophosphoric acid and then harvested onto P81 Unifilter plates with a wash buffer of 50 mM orthophosphoric acid.

CAMKKb = CAMKKb (Homo sapiens (Human), UniProt Q96RR4); assay: CAMKKb kinase selectivity assay
Protocol: (§1) 5-20 mU of CAMKKb (diluted in 50 mM Tris (pH 7.5), 0.1 mM EGTA, 1 mg/ml BSA, 0.1%, b-Mercaptoethanol) is assayed against substrate peptide ([…]) in a final volume of 25.5 μl containing 50 mM Tris (pH 7.5), 0.1 mM EGTA, 0.5 mM CaCl2, 0.3 μM calmodulin, 0.1%, b-Mercaptoethanol, 300 μM substrate peptide, 10 mM magnesium acetate and 0.02 mM [33P-g-ATP](500-1000 cpm/pmole) and incubated for 30 mins at room temperature. Assays are stopped by addition of 5 μl of 0.5M (3%) orthophosphoric acid. Assays are harvested onto P81 Unifilter plates using a wash buffer of 50 mM orthophosphoric acid.

MLK3 = MLK3 (Homo sapiens (Human), UniProt Q16584); assay: MLK3 kinase selectivity assay
Protocol: MLK3 (5-20 mU diluted in 50 mM Tris pH 7.5, 0.1 mM EGTA, 0.1% 0-mercaptoethanol, 1 mg/ml BSA) is assayed against MBP in a final volume of 25.5 μl containing 50 mM Tris pH 7.5, 0.1 mM EGTA, 0.33 mg/ml MBP, 10 mM magnesium acetate and 0.02 mM [33P-γ-ATP] (50-1000 cpm/pmole) and incubated for 30 min at room temperature. Assays are stopped by addition of 5 μl of 0.5 M (3%) orthophosphoric acid and then harvested onto P81 Unifilter plates with a wash buffer of 50 mM orthophosphoric acid.

CHK1 = CHK1 (Homo sapiens (Human), UniProt O14757); assay: CHK1 kinase selectivity assay
Protocol: CHK1 (5-20 mU diluted in 20 mM MOPS pH 7.5, 1 mM EDTA, 0.1% b-mercaptoethanol, 0.01% Brij-35, 5% glycerol, 1 mg/ml BSA) is assayed against CHKtide substrate peptide ([…]) in a final volume of 25.5 μl containing 8 mM MOPS pH 7.0, 0.2 mM EDTA, 200 μM CHKtide, 10 mM magnesium acetate and 0.02 mM [33P-g-ATP](50-1000 cpm/pmole) and incubated for 30 min at room temperature Assays are stopped by addition of 5 μl of 0.5 M (3%) orthophosphoric acid and then harvested onto P81 Unifilter plates with a wash buffer of 50 mM orthophosphoric acid.

TAK1 = TAK1 (Homo sapiens (Human), UniProt O43318); assay: TAK1 kinase selectivity assay
Protocol: TAK1 (5-20 mU diluted in 50 mM Tris pH 7.5, 0.1 mM EGTA, 1 mg/ml BSA) is assayed against a substrate peptide ([…]) in a final volume of 25.5 μl containing 50 mM Tris pH 7.5, 0.1 mM EGTA, 0.1% β-Mercaptoethanol, 300 μM substrate peptide, 10 mM magnesium acetate, 0.5 mM MnCl and 0.005 mM [33P-γ-ATP](50-1000 cpm/pmole) and incubated for 30 min at room temperature. Assays are stopped by addition of 5 μl of 0.5 M (3%) orthophosphoric acid and then harvested onto P81 Unifilter plates with a wash buffer of 50 mM orthophosphoric acid.

NEK2a = NEK2a (Homo sapiens (Human), UniProt P51955); assay: NEK2a kinase selectivity assay
Protocol: as §1, with “NEK2a” for “CAMKKb”, “NEK2a” for “substrate”, “0.01% Brij,” for “0.5 mM CaCl2, 0.3 μM calmodulin,”, “0.05” for “0.02”

PDK1 = PDK1 (Homo sapiens (Human), UniProt O15530); assay: PDK1 kinase selectivity assay
Protocol: PDK1 (5-20 mU diluted in 50 mM Tris pH 7.5, 0.05% b-mercaptoethanol, 1 mg/ml BSA) is assayed against PDKtide ([…]-[…]) in a final volume of 25.5 μl containing 50 mM Tris pH 7.5, 0.05% b-mercaptoethanol, 100 μM substrate peptide, 10 mM magnesium acetate and 0.02 mM [33P-g-ATP](50-1000 cpm/pmole) and incubated for 30 min at room temperature Assays are stopped by addition of 5 μl of 0.5 M (3%) orthophosphoric acid and then harvested onto P81 Unifilter plates with a wash buffer of 50 mM orthophosphoric acid.

Chain of CHK1 (O14757 whole entry, species assumed): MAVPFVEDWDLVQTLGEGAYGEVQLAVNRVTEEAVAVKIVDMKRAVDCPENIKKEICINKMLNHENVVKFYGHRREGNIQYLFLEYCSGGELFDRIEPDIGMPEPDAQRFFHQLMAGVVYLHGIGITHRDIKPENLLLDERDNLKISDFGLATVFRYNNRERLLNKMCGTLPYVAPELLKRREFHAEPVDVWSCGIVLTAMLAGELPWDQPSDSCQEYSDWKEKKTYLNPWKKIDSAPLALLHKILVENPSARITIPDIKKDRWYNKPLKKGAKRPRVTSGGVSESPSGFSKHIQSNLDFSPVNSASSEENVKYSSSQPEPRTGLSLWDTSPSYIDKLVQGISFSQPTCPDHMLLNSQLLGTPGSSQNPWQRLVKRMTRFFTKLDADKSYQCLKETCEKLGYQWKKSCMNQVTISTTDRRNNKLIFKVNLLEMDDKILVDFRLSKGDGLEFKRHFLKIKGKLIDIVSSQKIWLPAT
Chain of TAK1 (O43318 1-303): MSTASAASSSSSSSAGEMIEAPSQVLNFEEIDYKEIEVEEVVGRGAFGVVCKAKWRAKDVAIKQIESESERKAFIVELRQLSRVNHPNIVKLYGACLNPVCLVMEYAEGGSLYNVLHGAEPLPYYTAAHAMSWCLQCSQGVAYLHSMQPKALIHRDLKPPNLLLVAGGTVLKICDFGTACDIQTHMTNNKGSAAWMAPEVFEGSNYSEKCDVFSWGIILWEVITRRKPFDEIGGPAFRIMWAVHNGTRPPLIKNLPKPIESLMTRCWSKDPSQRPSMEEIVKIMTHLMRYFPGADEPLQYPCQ
Chain of PDK1 (O15530 whole entry): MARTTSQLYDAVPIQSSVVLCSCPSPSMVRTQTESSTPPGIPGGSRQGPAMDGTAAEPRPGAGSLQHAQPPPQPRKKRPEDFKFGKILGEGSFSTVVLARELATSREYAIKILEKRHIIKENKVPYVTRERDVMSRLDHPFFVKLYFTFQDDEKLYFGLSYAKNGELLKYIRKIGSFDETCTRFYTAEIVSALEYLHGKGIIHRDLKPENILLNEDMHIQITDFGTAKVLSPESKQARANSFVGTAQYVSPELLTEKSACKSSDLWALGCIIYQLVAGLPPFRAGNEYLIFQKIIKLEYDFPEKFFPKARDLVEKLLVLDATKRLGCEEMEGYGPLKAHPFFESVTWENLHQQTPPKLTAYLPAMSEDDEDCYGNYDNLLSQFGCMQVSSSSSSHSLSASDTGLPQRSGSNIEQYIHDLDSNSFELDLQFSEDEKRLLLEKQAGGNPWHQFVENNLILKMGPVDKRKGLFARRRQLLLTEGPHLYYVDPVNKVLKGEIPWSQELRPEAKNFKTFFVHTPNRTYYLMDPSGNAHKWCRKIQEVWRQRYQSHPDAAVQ
Chain of HER4 (Q15303 26-1308, species assumed): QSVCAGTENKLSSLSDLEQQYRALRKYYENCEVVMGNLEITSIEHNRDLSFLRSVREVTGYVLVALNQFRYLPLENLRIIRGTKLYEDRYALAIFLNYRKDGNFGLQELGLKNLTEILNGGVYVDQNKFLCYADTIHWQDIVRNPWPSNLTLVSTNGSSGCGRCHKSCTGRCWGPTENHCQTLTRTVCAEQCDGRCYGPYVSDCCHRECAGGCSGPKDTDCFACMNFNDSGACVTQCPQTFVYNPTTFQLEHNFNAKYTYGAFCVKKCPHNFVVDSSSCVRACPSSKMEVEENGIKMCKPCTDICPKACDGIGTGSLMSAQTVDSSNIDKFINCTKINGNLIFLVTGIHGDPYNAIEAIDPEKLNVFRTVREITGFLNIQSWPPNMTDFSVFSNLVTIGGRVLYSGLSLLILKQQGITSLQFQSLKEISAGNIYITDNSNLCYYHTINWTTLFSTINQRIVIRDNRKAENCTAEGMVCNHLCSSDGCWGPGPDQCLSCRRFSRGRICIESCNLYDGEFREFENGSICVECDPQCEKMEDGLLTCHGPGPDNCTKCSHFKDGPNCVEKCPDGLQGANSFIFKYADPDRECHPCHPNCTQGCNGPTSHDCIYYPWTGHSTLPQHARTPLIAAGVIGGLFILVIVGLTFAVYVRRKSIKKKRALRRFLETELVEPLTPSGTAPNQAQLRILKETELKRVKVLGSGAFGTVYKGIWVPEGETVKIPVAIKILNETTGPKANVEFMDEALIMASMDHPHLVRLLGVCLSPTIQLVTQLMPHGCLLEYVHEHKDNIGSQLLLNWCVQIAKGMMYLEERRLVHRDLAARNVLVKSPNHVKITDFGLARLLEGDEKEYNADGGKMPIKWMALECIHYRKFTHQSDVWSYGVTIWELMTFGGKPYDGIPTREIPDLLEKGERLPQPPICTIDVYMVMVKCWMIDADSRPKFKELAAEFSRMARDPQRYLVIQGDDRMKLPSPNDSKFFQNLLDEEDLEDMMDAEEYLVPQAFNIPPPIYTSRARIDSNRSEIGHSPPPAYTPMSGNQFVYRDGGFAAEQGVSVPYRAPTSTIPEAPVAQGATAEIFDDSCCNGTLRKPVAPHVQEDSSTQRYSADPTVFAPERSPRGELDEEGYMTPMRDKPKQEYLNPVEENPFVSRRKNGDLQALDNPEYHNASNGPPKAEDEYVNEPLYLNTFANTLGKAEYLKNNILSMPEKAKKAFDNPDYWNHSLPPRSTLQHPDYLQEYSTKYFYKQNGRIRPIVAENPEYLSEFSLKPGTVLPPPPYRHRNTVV
Chain of NEK2a (P51955 whole entry, species assumed): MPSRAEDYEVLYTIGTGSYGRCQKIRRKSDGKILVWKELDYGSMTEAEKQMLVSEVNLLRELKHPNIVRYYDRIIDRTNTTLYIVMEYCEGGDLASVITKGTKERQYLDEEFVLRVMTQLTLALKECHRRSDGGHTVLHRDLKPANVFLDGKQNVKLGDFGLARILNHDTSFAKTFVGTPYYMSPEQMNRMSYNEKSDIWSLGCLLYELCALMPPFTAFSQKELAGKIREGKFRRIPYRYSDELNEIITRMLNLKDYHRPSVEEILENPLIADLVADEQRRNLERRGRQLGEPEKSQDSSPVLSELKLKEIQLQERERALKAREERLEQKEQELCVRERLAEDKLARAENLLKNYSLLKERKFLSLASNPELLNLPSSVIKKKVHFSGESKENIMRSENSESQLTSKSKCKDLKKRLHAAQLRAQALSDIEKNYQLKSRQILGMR
Chain of MLK3 (Q16584 whole entry, species assumed): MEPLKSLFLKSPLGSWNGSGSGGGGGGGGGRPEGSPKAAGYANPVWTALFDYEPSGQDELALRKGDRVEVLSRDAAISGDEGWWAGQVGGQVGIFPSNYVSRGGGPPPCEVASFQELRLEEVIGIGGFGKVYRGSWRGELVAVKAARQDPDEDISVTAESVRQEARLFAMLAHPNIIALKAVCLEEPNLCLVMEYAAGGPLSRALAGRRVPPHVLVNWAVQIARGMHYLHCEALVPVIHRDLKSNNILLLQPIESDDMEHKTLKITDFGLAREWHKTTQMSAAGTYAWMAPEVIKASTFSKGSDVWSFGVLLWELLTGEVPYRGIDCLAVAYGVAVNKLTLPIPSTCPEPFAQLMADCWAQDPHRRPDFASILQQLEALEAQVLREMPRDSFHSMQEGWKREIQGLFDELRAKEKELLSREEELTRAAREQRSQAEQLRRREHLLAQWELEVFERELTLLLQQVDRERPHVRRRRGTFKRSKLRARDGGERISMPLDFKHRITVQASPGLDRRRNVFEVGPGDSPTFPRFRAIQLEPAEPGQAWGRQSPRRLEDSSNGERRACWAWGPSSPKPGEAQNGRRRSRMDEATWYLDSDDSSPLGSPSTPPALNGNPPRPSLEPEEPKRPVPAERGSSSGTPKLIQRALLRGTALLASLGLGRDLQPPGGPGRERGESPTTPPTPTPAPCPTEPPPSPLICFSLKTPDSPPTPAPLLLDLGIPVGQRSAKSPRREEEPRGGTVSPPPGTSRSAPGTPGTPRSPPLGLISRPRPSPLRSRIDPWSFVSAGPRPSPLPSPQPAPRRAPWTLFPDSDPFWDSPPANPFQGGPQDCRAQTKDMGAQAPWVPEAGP

Structure (SMILES)	percentage inhibition of HER4 (HER4) [percentage]	percentage inhibition of VEG-FR (VEG-FR) [percentage]	percentage inhibition of CAMKKb (CAMKKb) [percentage]	percentage inhibition of MLK3 (MLK3) [percentage]	percentage inhibition of CHK1 (CHK1) [percentage]	percentage inhibition of TAK1 (TAK1) [percentage]	percentage inhibition of NEK2a (NEK2a) [percentage]	percentage inhibition of PDK1 (PDK1) [percentage]
c1cc2[nH]nc3c2c(n1)N(C1CCC1)CCC3 [Example 22, 6-cyclobutyl-6,7,8,9-tetrahydro-2H-1,2,5,6-tetraazabenzo[cd]azulene]	8	0	5	7	2	64	13	7
c1cc2[nH]nc3c2c(n1)N(C1CCCC1)CCC3 [Example 23, 6-cyclopentyl-6,7,8,9-tetrahydro-2H-1,2,5,6-tetraazabenzo[cd]azulene]	3	–	7	4	0	49	8	0
c1cc2[nH]nc3c2c(n1)N(C1CCOCC1)CCC3 [Example 29, 6-(tetrahydro-2H-pyran-4-yl)-6,7,8,9-tetrahydro-2H-1,2,5,6-tetraazabenzo[cd]azulene]	10	9	0	8	0	65	0	2
CN1CCC(N2Cc3ccccc3-c3n[nH]c4ccnc2c34)CC1 [Example 55]	0	19	0	6	42	64	14	42
CC(C)n1ncc2c1CN(C1CCN(C)CC1)c1nccc3[nH]nc-2c13 [Example 68]	1	42	0	4	28	36	0	21
